Test results reported in patent US20190284136A1, “INDOLINE DERIVATIVES” (ViiV HEALTHCARE UK LIMITED, priority 2016, published 2019).

Test system: HIV
Test: Table 1 IC50 of the examples (assay method not given; patent concerns inhibiting HIV replication)
Type: cell-based
Details: Human immunodeficiency virus 1

Row | SMILES | IC50 [nM]
1 | COc1c(Cl)cccc1C(=O)N1CCc2c1cc(C)c([C@H](OC(C)(C)C)C(=O)O)c2-c1cc(F)c2c(c1C)CCCO2 (atropisomer, axis not shown) [Example 75, (S)-2-(tert-Butoxy)-2-((R)-1-(3-chloro-2-methoxybenzoyl)-4-(8-fluoro-5-methylchroman-6-yl)-6-methylindolin-5-yl)acetic acid] | 6.61
2 | COc1ccc(F)c(C(=O)N2CCc3c2cc(C)c([C@H](OC(C)(C)C)C(=O)O)c3-c2cc(F)c3c(c2C)CCCO3)c1 (atropisomer, axis not shown) [Example 167, (S)-2-(tert-Butoxy)-2-((R)-1-(2-fluoro-5-methoxybenzoyl)-4-(8-fluoro-5-methylchroman-6-yl)-6-methylindolin-5-yl)acetic acid] | 7
3 | Cc1cc(F)ccc1Cn1ccc2c(-c3cc(F)c4c(c3C)CCCO4)c([C@H](OC(C)(C)C)C(=O)O)c(C)cc21 (atropisomer, axis not shown) [Example 199, (S)-2-(tert-Butoxy)-2-((R)-1-(4-fluoro-2-methylbenzyl)-4-(8-fluoro-5-methylchroman-6-yl)-6-methyl-1H-indol-5-yl)acetic acid] | 42
4 | Cc1ccc(-c2c3c(cc(C)c2C(OC(C)(C)C)C(=O)O)N(CC(=O)c2ccccc2)CCC3)cc1 (stereo not shown) [Example 207, 2-(tert-Butoxy)-2-(7-methyl-1-(2-oxo-2-phenylethyl)-5-(p-tolyl)-1,2,3,4-tetrahydroquinolin-6-yl)acetic acid] | 3500
5 | COc1ccc(C(=O)N2CCc3c2cc(C)c([C@H](OC(C)(C)C)C(=O)O)c3-c2cc(F)c3c(c2C)CCCO3)cc1F (atropisomer, axis not shown) [Example 74, (S)-2-(tert-butoxy)-2-((R)-1-(3-fluoro-4-methoxybenzoyl)-4-(8-fluoro-5-methylchroman-6-yl)-6-methylindolin-5-yl)acetic acid] | 5
6 | COc1cnccc1C(=O)N1CCc2c1cc(C)c([C@H](OC(C)(C)C)C(=O)O)c2-c1cc(F)c2c(c1C)CCCO2 (atropisomer, axis not shown) [Example 171, (S)-2-(tert-Butoxy)-2-((R)-4-(8-fluoro-5-methylchroman-6-yl)-1-(3-methoxyisonicotinoyl)-6-methylindolin-5-yl)acetic acid] | 14
7 | Cc1ccc(-c2c3c(cc(C)c2C(OC(C)(C)C)C(=O)O)N(Cc2ccc(F)c(F)c2)CC3)cc1 (stereo not shown) [Example 1] | 517
8 | Cc1cc2c(c(-c3cc(F)c4c(c3C)CCCO4)c1[C@H](OC(C)(C)C)C(=O)O)CCN2C(=O)c1ccc(C(F)(F)F)cc1Cl (atropisomer, axis not shown) [Example 144, (S)-2-(tert-Butoxy)-2-((R)-1-(2-chloro-4-(trifluoromethyl)benzoyl)-4-(8-fluoro-5-methylchroman-6-yl)-6-methylindolin-5-yl)acetic acid] | 26
9 | Cc1cc2c(c(-c3cc(F)c4c(c3C)CCCO4)c1[C@H](OC(C)(C)C)C(=O)O)CCN2C(=O)c1cccc2c1OCCO2 (atropisomer, axis not shown) [Example 83, (S)-2-(tert-Butoxy)-2-((R)-1-(2,3-dihydrobenzo[b][1,4]dioxine-5-carbonyl)-4-(8-fluoro-5-methylchroman-6-yl)-6-methylindolin-5-yl)acetic acid] | 7
10 | Cc1cc2c(c(-c3cc(F)c4c(c3C)CCCO4)c1[C@H](OC(C)(C)C)C(=O)O)CCN2C(=O)c1ccc2c(c1)CCO2 (atropisomer, axis not shown) [Example 127, (S)-2-(tert-Butoxy)-2-((R)-1-(2,3-dihydrobenzofuran-5-carbonyl)-4-(8-fluoro-5-methylchroman-6-yl)-6-methylindolin-5-yl)acetic acid] | 2
11 | Cc1cc2c(c(-c3cc(F)c4c(c3C)CCCO4)c1[C@H](OC(C)(C)C)C(=O)O)CCN2C(=O)C1CCCc2ccccc21 (stereo partly drawn) [Example 105, (2S)-2-(tert-Butoxy)-2-((4R)-4-(8-fluoro-5-methylchroman-6-yl)-6-methyl-1-(1,2,3,4-tetrahydronaphthalene-1-carbonyl)indolin-5-yl)acetic acid] | 21
12 | COc1cc(OC)cc(C(=O)N2CCc3c2cc(C)c([C@H](OC(C)(C)C)C(=O)O)c3-c2cc(F)c3c(c2C)CCCO3)c1 (atropisomer, axis not shown) [Example 63, (S)-2-(tert-Butoxy)-2-((R)-1-(3,5-dimethoxybenzoyl)-4-(8-fluoro-5-methylchroman-6-yl)-6-methylindolin-5-yl)acetic acid] | 4
13 | Cc1ccc(-c2c3c(cc(C)c2[C@H](OC(C)(C)C)C(=O)O)N(C(=O)c2cc(C)cc(F)c2)CC3)cc1 [Example 32, (S)-2-(tert-Butoxy)-2-(1-(3-fluoro-5-methylbenzov)-6-methyl-4-(p-tolyl)indolin-5-yl)acetic acid] | 11
14 | COc1c(F)cccc1Cn1ccc2c(-c3cc(F)c4c(c3C)CCCO4)c([C@H](OC(C)(C)C)C(=O)O)c(C)cc21 (atropisomer, axis not shown) [Example 200, (S)-2-(tert-Butoxy)-2-((R)-1-(3-Fluoro-2-methoxybenzyl)-4-(8-fluoro-5-methylchroman-6-yl)-6-methyl-1H-indol-5-yl)acetic acid] | 34
15 | Cc1cc2c(c(-c3ccc4c(c3C)CCCO4)c1[C@H](OC(C)(C)C)C(=O)O)CCN2C(=O)c1cc(F)cc(F)c1 (atropisomer, axis not shown) [Example 189, (S)-2-(tert-Butoxy)-2-((R)-1-(3,5-difluorobenzoyl)-6-methyl-4-(5-methylchroman-6-yl)indolin-5-yl)acetic acid] | 6
16 | Cc1cc2c(c(-c3cc(F)c4c(c3C)CCCO4)c1[C@H](OC(C)(C)C)C(=O)O)CCN2C(=O)C1CC1 (atropisomer, axis not shown) [Example 132, (S)-2-(tert-Butoxy)-2-((R)-1-(cyclopropanecarbonyl)-4-(8-fluoro-5-methylchroman-6-yl)-6-methylindolin-5-yl)acetic acid] | 414
17 | Cc1cc(Cl)cc(C(=O)N2CCc3c2cc(C)c([C@H](OC(C)(C)C)C(=O)O)c3-c2cc(F)c3c(c2C)CCCO3)c1 (atropisomer, axis not shown) [Example 141, (S)-2-(tert-Butoxy)-2-((R)-1-(3-chloro-5-methylbenzoyl)-4-(8-fluoro-5-methylchroman-6-yl)-6-methylindolin-5-yl)acetic acid] | 6
18 | Cc1ccc(-c2c3c(cc(C)c2[C@H](OC(C)(C)C)C(=O)O)N(C(=O)c2cc(F)ccc2C)CC3)cc1 [Example 33] | 13
19 | Cc1cc2c(c(-c3cc(F)c4c(c3C)CCCO4)c1[C@H](OC(C)(C)C)C(=O)O)CCN2C(=O)c1cccc(F)c1C (atropisomer, axis not shown) [Example 96, (S)-2-(tert-Butoxy)-2-((R)-1-(3-fluoro-2-methylbenzoyl)-4-(8-fluoro-5-methylchroman-6-yl)-6-methylindolin-5-yl)acetic acid] | 4
20 | Cc1cc2c(c(-c3cc(F)c4c(c3C)CCCO4)c1[C@H](OC(C)(C)C)C(=O)O)CCN2C(=O)c1cncc(F)c1 (atropisomer, axis not shown) [Example 76, (S)-2-(tert-Butoxy)-2-((R)-4-(8-fluoro-5-methylchroman-6-yl)-1-(5-fluoronicotinoyl)-6-methylindolin-5-yl)acetic acid] | 15
21 | COc1ccc(C(=O)N2CCc3c2cc(C)c([C@H](OC(C)(C)C)C(=O)O)c3-c2cc(F)c3c(c2C)CCCO3)cc1C(F)(F)F (atropisomer, axis not shown) [Example 157, (S)-2-(tert-Butoxy)-2-((R)-4-(8-fluoro-5-methylchroman-6-yl)-1-(4-methoxy-3-(trifluoromethyl)benzoyl)-6-methylindolin-5-yl)acetic acid] | 6
22 | CC(=O)Nc1cccc(C(=O)N2CCc3c2cc(C)c([C@H](OC(C)(C)C)C(=O)O)c3-c2cc(F)c3c(c2C)CCCO3)c1 (atropisomer, axis not shown) [Example 78, (S)-2-((R)-1-(3-Acetamidobenzoyl)-4-(8-fluoro-5-methylchroman-6-yl)-6-methylindolin-5-yl)-2-(tert-butoxy)acetic acid] | 310
23 | COc1c(C)cccc1C(=O)N1CCc2c1cc(C)c([C@H](OC(C)(C)C)C(=O)O)c2-c1cc(F)c2c(c1C)CCCO2 (atropisomer, axis not shown) [Example 87, (S)-2-(tert-Butoxy)-2-((R)-4-(8-fluoro-5-methylchroman-6-yl)-1-(2-methoxy-3-methylbenzoyl)-6-methylindolin-5-yl)acetic acid] | 5
24 | COc1ccc(C(=O)N2CCc3c2cc(C)c([C@H](OC(C)(C)C)C(=O)O)c3-c2cc(F)c3c(c2C)CCCO3)c(OC)c1OC (atropisomer, axis not shown) [Example 126, (S)-2-(tert-Butoxy)-2-((R)-4-(8-fluoro-5-methylchroman-6-yl)-6-methyl-1-(2,3,4-trimethoxybenzoyl)indolin-5-yl)acetic acid] | 5
25 | COc1cccc(C(=O)N2CCc3c2cc(C)c([C@H](OC(C)(C)C)C(=O)O)c3-c2ccc(C)cc2)c1 [Example 16, (S)-2-(tert-Butoxy)-2-(1-(3-methoxybenzoyl)-6-methyl-4-(p-tolyl)indolin-5-yl)acetic acid] | 12
26 | Cc1ccc(-c2c3c(cc(C)c2C(OC(C)(C)C)C(=O)O)N(c2ccccc2)CCC3)cc1 (stereo not shown) [Example 211, 2-(tert-Butoxy)-2-(7-methyl-1-phenyl-5-(p-tolyl)-1,2,3,4-tetrahydroquinolin-6-yl)acetic acid] | 10400
27 | Cc1cc2c(c(-c3cc(F)c4c(c3C)CCCO4)c1[C@H](OC(C)(C)C)C(=O)O)CCN2C(=O)c1ccc(Cl)c(F)c1 (atropisomer, axis not shown) [Example 56, (S)-2-(tert-Butoxy)-2-((R)-1-(4-chloro-3-fluorobenzoyl)-4-(8-fluoro-5-methylchroman-6-yl)-6-methylindolin-5-yl)acetic acid] | 2
28 | COc1ncccc1C(=O)N1CCc2c1cc(C)c([C@H](OC(C)(C)C)C(=O)O)c2-c1cc(F)c2c(c1C)CCCO2 (atropisomer, axis not shown) [Example 90, (S)-2-(tert-Butoxy)-2-((R)-4-(8-fluoro-5-methylchroman-6-yl)-1-(2-methoxynicotinoyl)-6-methylindolin-5-yl)acetic acid] | 5
